# According to article PMC7822819, “Discovery of a new class of integrin antibodies for fibrosis” (Scientific Reports, 2021):
# Values joined by “and” are separate entries in the source; they are usually repeats but may differ in a detail not shown here. Equal values may be shown once.
# Assays:
# [1] = tested on: normal human lung fibroblasts; test: TGFβ-induced αSMA high-content imaging; type: cell-based; conditions: 10 μM, 30 min pre-treatment, TGFβ 5 ng/mL, 48 h
# Description: (§1) Normal human lung fibroblasts (Lonza) and Primary Human IPF Lung Parenchymal Fibroblasts (Donor2) (BioIVT, #PCR-70-0214) were incubated at 37 °C and 5% CO2. To induce fibrotic response in primary cells, a final concentration of 5 ng/ml of recombinant human TGFβ1 (BioLegend, #580702) was added to the culture media and treated for 24 ~ 48 h. Anti-TGFβ neutralizing antibody (1D11) and the isotype control mouse IgG1 were from BioXcell. SB-525334 and bleomycin were from Sigma. MK-0429 was synthesized by Merck & Co., Inc., Kenilworth, NJ, USA. CHOK1-integrin stable lines were cultured in DMEM/F12, Glutamax (Gibco #10565018), 10% FBS (Gibco 310091148), 1 × Pen/Strep (Gibco 315140-148), and 6 ug/mL Puromycin (Gibco #A1113803).
# (§2) Primary cells (passage 3–5) were grown on Cell carrier Ultra, col1 coated 96-well plates (Perkin Elmer, #6055700) at a density of 25,000 cells/well. Once the cells adhere, they were starved in serum free media for 24 h followed by addition of treatments i.e. 5 ng/mL TGFβ (Biolegend #580702) ± inhibitors. Cells were pre-treated with inhibitors for 30 min prior to the addition of TGFβ stimulation. 48hours post treatment, the cells were fixed in 4% methanol free paraformaldehyde (ThermoFisher Scientific #28908) for 20 min at room temperature and incubated with anti-alpha smooth muscle Actin antibody (Abcam #ab7817) at 1:4000 overnight at 4 °C. […]
# [2] = tested on: IPF patient lung fibroblasts; test: TGFβ-induced αSMA high-content imaging; type: cell-based, human; conditions: TGFβ 5 ng/mL, 48 h, read-out: IC50 TGFβ-mediated αSMA induction
# Description: as §1, §2
# [3] = tested on: bleomycin-induced lung fibrosis; test: Bleomycin-induced lung fibrosis mouse model; type: in vivo; conditions: BLM mice, Nintedanib 60 mpk po qd
# Description: Adult male C57BL/6 mice (Taconic, Rensselaer, NY) were housed in a temperature and humidity-controlled facility with a 12 h light: 12-h dark cycle. Animals had ad libitum access to food (Purina Rodent Chow 5053, LabDiet, St. Louis, MO) and water. All procedures utilizing experimental animals were conducted in accordance with the Guide for the Care and Use of Laboratory Animals, and experimental procedures were reviewed and approved by the Institutional Animal Care and Use Committee at MRL, Kenilworth, NJ. For osmotic minipump implantation, TFA salt of MK-0429 was formulated in 50% DMSO/50% H2O at a concentration of 416 mg/mL. MK-0429 or vehicle solution were filled in minipumps (Alzet, # 1007D, flow rate 0.5 μL/h). Minipumps were placed in mice subcutaneously in a pocket on the back between the shoulder blades. A small incision was made and a subcutaneous pocket formed by blunt dissection. A sterile minipump was inserted into the subcutaneous pocket. The incision was closed with staples or non-absorbable suture or absorbable (subcuticular) suture. The minipumps were used for continuous drug delivery for 2 weeks. Mice at 12 ~ 13 weeks of age were randomized to 5 groups: saline, bleomycin instillation with vehicle (osmotic minipump), bleomycin instillation with MK-0429 treatment, bleomycin instillation with vehicle oral treatment, and bleomycin instillation with Nintedanib treatment. All mice were anaesthetized with isoflurane. Bleomycin was dosed by intra-tracheal (i.t) instillation in a volume of 50 µl, at a dose of 1unit /kg body weight. After instillation, mice were kept in a heads-up position for 2–5 min before putting into cages. MK-0429 (200 mg/kg) was administered by Osmotic pump from day 5 to day 14 and Nintedanib (60 mg/kg) was administered, p.o., q.d., for 14 days. Vehicle was dosed orally at 10 am daily from the day 5 to the end of the studies and dosing volume was 10 mL/kg. For plasma PK analysis, an aliquot of 50 μL plasma was spiked into a 96-well plate, and 200 μL of acetonitrile containing internal standard were added for protein precipitation. The mixture was vortexed, centrifuged at 4000 rpm for 20 min. 50 μL of supernatant were mixed with 200 μl H2O and the final solution were injected for LC–MS/MS analysis. The methods for quantitative analysis were developed on UPLC (Waters) chromatographic system equipped with an API4000 QTrap mass spectrometer (Applied Biosystems, Concord, Ontario, Canada). Analyst 1.5 software packages (Applied Biosystems) were used to control the LC–MS/MS system and data acquisition and processing. Upon completion of the study, animals were euthanized and tissues were collected for histological assessment. Lung tissues were perfused with 10% formalin, fixed for 24 h, and then paraffin embedded. Tissue sections were stained with hematoxylin & eosin (H&E) and Masson’s trichrome, subsequently evaluated under light microscope. The severity of histopathologic changes and fibrosis in the lung were graded as described previously by pathologists[51],[52]. Following deparaffinization and rehydration, each lung tissue section was processed to identify αSMA deposition by immunohistochemistry. The primary antibodies used were αSMA antibody from Sigma. The Aperio ScanScope XT Slide Scanner (Aperio Technologies) system was used to capture whole slide digital images with a 20 × objective. Digital images were managed using Aperio Spectrum. The positive stains were identified and quantified using a macro created from a color deconvolution algorithm (Aperio Technologies). Statistical analysis was performed by using One-way ANOVA followed by Tukey’s test.
# [4] = Plasma total drug concentration in bleomycin model (LC-MS/MS); type: in vivo, mouse; conditions: 2 h after last dose, Day 19; MK-0429 200 mpk minipump, Nintedanib 60 mpk po qd; mean ± SE
# Description: Mice at 12 ~ 13 weeks of age were randomized to 5 groups: saline, bleomycin instillation with vehicle (osmotic minipump), bleomycin instillation with MK-0429 treatment, bleomycin instillation with vehicle oral treatment, and bleomycin instillation with Nintedanib treatment. All mice were anaesthetized with isoflurane. Bleomycin was dosed by intra-tracheal (i.t) instillation in a volume of 50 µl, at a dose of 1unit /kg body weight. After instillation, mice were kept in a heads-up position for 2–5 min before putting into cages. MK-0429 (200 mg/kg) was administered by Osmotic pump from day 5 to day 14 and Nintedanib (60 mg/kg) was administered, p.o., q.d., for 14 days. Vehicle was dosed orally at 10 am daily from the day 5 to the end of the studies and dosing volume was 10 mL/kg. For plasma PK analysis, an aliquot of 50 μL plasma was spiked into a 96-well plate, and 200 μL of acetonitrile containing internal standard were added for protein precipitation. The mixture was vortexed, centrifuged at 4000 rpm for 20 min. 50 μL of supernatant were mixed with 200 μl H2O and the final solution were injected for LC–MS/MS analysis. The methods for quantitative analysis were developed on UPLC (Waters) chromatographic system equipped with an API4000 QTrap mass spectrometer (Applied Biosystems, Concord, Ontario, Canada). […]
# [5] = treatment from day 5 for 14 days, MK-0429 200 mpk osmotic minipump, vs BLM-vehicle
Compound,αSMA intensity and percentage of stimulated cells following TGFβ treatment [1],IC50 [2] [nM],"TIMP-1 content in BALF ([3]; 14 days treatment, MK-0429 200 mpk minipump)","Modified Ashcroft score of mouse lung [3, 5]","Total inflammation area in mouse lungs [3, 5]","αSMA immunohistochemistry in lung [3, 5]",Body weight vs bleomycin group ([3]; MK-0429 200 mpk minipump),Mean plasma total drug concentration [4]
Cc1cccc(-c2[nH]c(C(C)(C)C)nc2-c2ccc3nccnc3c2)n1 [SB-525334],significantly reduced,56 ± 22,,,,,,
COC(=O)c1ccc2c(c1)NC(=O)/C2=C(\Nc1ccc(N(C)C(=O)CN2CCN(C)CC2)cc1)c1ccccc1 [Nintedanib],,,significantly decreased,significantly improved,decreased,significantly decreased,no significant body weight difference,656.1 ng/mL and 656 ± 229 ng/mL
